Data set [1] has as its system DU-145. The experiment in a line: Cytotoxicity against human DU145 cells by MTT assay. It is filed as functional, cell-based. On the technique in general: Tetrazolium assays rely on reduction of a dye to a coloured formazan, in cell work by metabolically active cells.
For data set [2], the system named is MCF7. Nature of the data set: Cytotoxicity against human MCF7 cells by MTT assay. It is filed as functional, cell-based.
For data set [3], the system named is K562. Nature of the data set: Cytotoxicity against human K562 cells by MTT assay. It is filed as functional, cell-based.
Data set [4] in a line: Cytotoxicity against human skin fibroblast cells by MTT assay. It is filed as cell-based.
The test system of data set [5] is MCF7. The experiment in a line: Induction of ROS level in human MCF7 cells by flow cytometry relative to control. It is filed as functional. A general note: Flow cytometry measures light scatter and fluorescence of single cells or particles in a stream.
A short description of data set [6]: Alkylation of the compound assessed as Michael addition after 15 mins. It is filed as physicochemical.
Data set [7] in a line: Alkylation of the compound assessed as bioreductive alkylation after 15 mins. It is filed as physicochemical.

By pIC50 is commonly meant −log10 of the IC50, conventionally taken in molar units. A low value points to a large IC50.

pIC50: −log10 of the molar value.

For `CC(C)=CC[C@@H](O)C1=CC(=O)c2c(O)ccc(O)c2C1=O` [SHIKONIN], the pIC50 in data set [1] was 4.80; in data set [2] it was 5.74; in data set [3], 6.15; in data set [4] it was 5.92.
The corresponding values for `CC(C)=CC[C@H](O)C1=CC(=O)c2c(O)ccc(O)c2C1=O` [ALKANNIN] are 4.70, 5.62, 5.89 and 5.82.
As to `CC(C)=CC[C@@H](OC(=O)C=C(C)C)C1=CC(=O)c2c(O)ccc(O)c2C1=O` [DIMETHYLACRYLSHIKONIN], the Activity in data set [5] is given as 414.8%; in data set [6], “Not Active”; in data set [7], “Not Active”.

The record behind these values is ChEMBL document CHEMBL3352810, “Synthesis and evaluation of novel alkannin and shikonin oxime derivatives as potent antitumor agents” (Bioorg Med Chem Lett, 2014).
